A short description of series [1]: Ocular exposure after eye drop administration. The class given is in vivo. The conditions noted are these: mouse, bilateral topical instillation of 0.1% formulation QDX1. The method, then:
Exposure data of compounds at 0.1% via eye drop administration:
On topical dosing of compounds formulated as 0.1% doses in 0.2% tyloxapol/1% HPMC/4% Mannitol, exposure levels in found in back of the eye tissues of the mouse are shown at two different time points, namely at 2 h and at 7 h.

For series [2], the system named is EOL-1, a chronic eosinophilic leukemia (CEL) derived line (FIP1L1-PDFRA-positive). As to the kind of experiment: XTT cell proliferation assay, EOL-1. It counts as cell-based. The conditions noted are these: for IC50: Homo sapiens, EOL1, XTT assay, read-out: Cellular IC50 EOL-1.
Series [3] deals with T1, Ba/F3 T674I (FIP1L1-PDFRA-T674I) (Homo sapiens, UniProt P16234, T674I, cells depend on it).
T1 construct: fused on or other part: Q6UN15 (Pre-mRNA 3'-end-processing factor FIP1)
T1 sequence (P16234 whole entry T674I, the tested form may be a part): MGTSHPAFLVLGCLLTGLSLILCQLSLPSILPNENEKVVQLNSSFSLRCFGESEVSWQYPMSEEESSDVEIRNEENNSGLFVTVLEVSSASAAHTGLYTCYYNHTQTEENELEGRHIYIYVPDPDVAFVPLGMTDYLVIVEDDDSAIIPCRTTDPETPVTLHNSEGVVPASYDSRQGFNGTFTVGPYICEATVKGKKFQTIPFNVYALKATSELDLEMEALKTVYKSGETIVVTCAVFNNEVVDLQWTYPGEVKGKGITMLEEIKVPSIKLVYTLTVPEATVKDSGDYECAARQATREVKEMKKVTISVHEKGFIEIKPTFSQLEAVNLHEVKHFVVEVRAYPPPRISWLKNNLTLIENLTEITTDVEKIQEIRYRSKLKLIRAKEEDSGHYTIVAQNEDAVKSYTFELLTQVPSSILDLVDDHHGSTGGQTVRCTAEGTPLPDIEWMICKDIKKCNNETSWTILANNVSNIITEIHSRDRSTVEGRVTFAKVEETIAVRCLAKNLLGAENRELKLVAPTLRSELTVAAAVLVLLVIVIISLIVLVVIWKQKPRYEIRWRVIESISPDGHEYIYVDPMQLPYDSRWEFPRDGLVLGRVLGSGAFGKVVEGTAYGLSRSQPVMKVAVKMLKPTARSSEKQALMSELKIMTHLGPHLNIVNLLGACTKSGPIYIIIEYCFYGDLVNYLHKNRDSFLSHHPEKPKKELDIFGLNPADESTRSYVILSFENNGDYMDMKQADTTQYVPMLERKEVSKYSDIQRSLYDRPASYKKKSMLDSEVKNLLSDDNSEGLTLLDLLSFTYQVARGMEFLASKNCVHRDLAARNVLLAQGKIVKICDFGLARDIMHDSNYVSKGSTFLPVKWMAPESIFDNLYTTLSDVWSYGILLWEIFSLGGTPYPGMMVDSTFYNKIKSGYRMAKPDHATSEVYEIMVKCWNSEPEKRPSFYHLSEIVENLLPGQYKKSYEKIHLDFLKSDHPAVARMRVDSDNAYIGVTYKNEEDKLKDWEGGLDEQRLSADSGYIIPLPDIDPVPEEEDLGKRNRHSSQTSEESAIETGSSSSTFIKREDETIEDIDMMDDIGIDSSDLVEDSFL
As to the kind of experiment: XTT cell proliferation assay, Ba/F3 T674I. It counts as cell-based. The conditions noted are these: for GI50: XTT assay, read-out: Cellular IC50 Ba/F3 T674I. In general terms: Tetrazolium assays rely on reduction of a dye to a coloured formazan, in cell work by metabolically active cells.

Series [4] has as its system HMC-1, a mast cell leukemia line (KITD816V-positive). Kind of series: XTT cell proliferation assay, HMC-1. The class given is cell-based. The conditions noted are these: for IC50: Homo sapiens.
The test system of series [5] is HEL cells. As to the kind of experiment: XTT cell proliferation assay, HEL cells. The conditions noted are these: Homo sapiens, XTT assay, Table 19, read-out: Cellular IC50 HEL. The class given is cell-based.
A short description of series [6]: Ocular exposure after eye drop administration. The class given is in vivo. The conditions noted are these: mouse.
The target of series [7] is T2, recombinant JAK2 (Homo sapiens, UniProt O60674).
T2 construct: purchased Upstate Cell Signaling Solutions
T2 sequence (O60674 808-1132 limits assumed): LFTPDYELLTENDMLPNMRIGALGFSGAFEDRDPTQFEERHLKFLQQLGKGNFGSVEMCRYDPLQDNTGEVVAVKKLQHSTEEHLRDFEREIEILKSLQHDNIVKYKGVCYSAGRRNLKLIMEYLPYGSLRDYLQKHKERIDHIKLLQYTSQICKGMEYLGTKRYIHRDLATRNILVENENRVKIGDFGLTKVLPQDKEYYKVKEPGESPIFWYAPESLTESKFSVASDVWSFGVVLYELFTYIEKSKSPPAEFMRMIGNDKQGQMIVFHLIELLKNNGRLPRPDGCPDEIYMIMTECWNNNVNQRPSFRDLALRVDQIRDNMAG
As to the kind of experiment: IC50 value determinations for Jak2 kinase, luminescence-based kinase assay (Kinase-Glo). The conditions noted are these: Table 1. The class given is biochemical.

Setting [8] is: cornea, read-out: Concentration (nM) Cornea.
[9] abbreviates: retina, read-out: Concentration (nM) retina.
Setting [10] is: sclera/choroid, read-out: Concentration (nM) Sclera/choroid.
The mark [11] stands for this setting: HMC1, XTT assay, read-out: Cellular IC50 HMC-1.

Where a name gives a salt, the structure may show the parent alone. Read-outs that look alike come from different tables or passages of the source. Where only a bound is given, the exact number is not on record here.

Take `Cc1cnc(Nc2ccc(N3CCN(C)CC3)cc2)nc1Nc1ccc(Cl)c2[nH]ccc12` [Compound LXXIV, N^4-(7-Chloro-1H-indol-4-yl)-5-methyl-N^2-(4-(4-methylpiperazin-1-yl)phenyl)pyrimidine-2,4-diamine]: the concentration at 2 h in series [1] (setting [8]) was found to be 45000 nM; in series [1] (setting [9]) it was 2120 nM; in series [1] (setting [10]), 6090 nM. Further, the concentration at 7 h in series [1] (setting [8]) was found to be 21000 nM; in series [1] (setting [9]), 2150 nM; in series [1] (setting [10]) it was 7350 nM.

`COc1cc(Nc2nc(Nc3ccc(OC4CCNCC4)cc3)ncc2C)ccc1Cl` [Compound LXXXII, N^4-(4-Chloro-3-methoxy-phenyl)-5-methyl-N^2-[4-(piperidin-4-yloxy)-phenyl]-pyrimidine-2,4-diamine]: the figures for the concentration at 2 h in series [1] (setting [8]), in series [1] (setting [9]) and in series [1] (setting [10]) were 69900 nM, 267 nM and 2340 nM, respectively. The results for the concentration at 7 h in series [1] (setting [8]), in series [1] (setting [9]) and in series [1] (setting [10]) were 45400 nM, 592 nM and 2250 nM, respectively.

In the case of `COc1cc(Nc2nc(Nc3ccc(N4CCNCC4)cc3)ncc2C)ccc1Cl` [Compound XLIV, N^4-(4-Chloro-3-methoxy-phenyl)-5-methyl-N^2-(4-piperazin-1-yl-phenyl)-pyrimidine-2,4-diamine], the concentration at 2 h came out at 103000 nM in series [1] (setting [8]), 406 nM in series [1] (setting [9]) and 4840 nM in series [1] (setting [10]). Also, the concentration at 7 h in series [1] (setting [8]) came out at 26600 nM; in series [1] (setting [9]), 321 nM; in series [1] (setting [10]) it was 3180 nM.

On to `Cc1cnc(Nc2ccc(OCCN3CCCC3)cc2)nc1Nc1cccc2c1OCO2` [Compound XXXVI, N^4-Benzo[1,3]dioxol-4-yl-5-methyl-N^2-[4-(2-pyrrolidin-1-yl-ethoxy)-phenyl]-pyrimidine-2,4-diamine], for which the concentration at 2 h in series [1] (setting [8]) came to 7870 nM; in series [1] (setting [9]), 816 nM; in series [1] (setting [10]), 7250 nM. Besides, the concentration at 7 h worked out at 18600 nM in series [1] (setting [8]), 11200 nM in series [1] (setting [9]) and 34800 nM in series [1] (setting [10]).

One may read the IC50 as the concentration that gives 50% inhibition. With `Cc1nc(Nc2ncc(C(=O)Nc3c(C)cccc3Cl)s2)cc(N2CCN(CCO)CC2)n1` [Dasatinib, dasatinib], the IC50 in series [2] was under 1 pM; in series [4] (setting [11]), 1300 nM. Also, in series [3], the GI50 is 30.9 µM.

In the case of `Cc1ccc(NC(=O)c2ccc(CN3CCN(C)CC3)cc2)cc1Nc1nccc(-c2cccnc2)n1` [Imatinib, imatinib mesylate], the “concentrations inhibiting EOL-1 growth” value in series [2] was “picomolar concentrations”.

As to `Cc1cnc(Nc2ccc(OCCN3CCCC3)cc2)nc1Nc1cccc(S(=O)(=O)NC(C)(C)C)c1` [LVII], the IC50 in series [5] is 300 nM; in series [2], under 1 pM; in series [4] (HMC1, read-out: Cellular IC50 HMC-1 (nM)) it was 355 nM.

As to `CNC(=O)c1cc(Oc2ccc(NC(=O)Nc3ccc(Cl)c(C(F)(F)F)c3)cc2)ccn1` [Sorafenib], in series [2], the “concentrations inhibiting EOL-1 growth” value is on record as “picomolar concentrations” and the IC50 was 2 pM. Besides, in series [3], the “concentrations inhibiting growth of Ba/F3 cells harboring FIP1L1-PDFGRA-T674I” value is recorded as “nanomolar concentrations” and the GI50 stood at 0.016 µM. Moreover, in series [4], the “sensitivity of HMC-1 growth” value is on record as “only a limited effect”. In addition, the IC50 in series [4] (setting [11]) was determined as 4000 nM.

For `COc1cc(Nc2nc(Nc3ccc(OCCN4CCCC4)cc3)ncc2C)ccc1Cl` [XVII], the concentration at 6 h in series [6] (cornea, bilateral topical instillation of 0.1% formulation QDX1, read-out: Concentration (nM) Cornea) came to 3780 nM; in series [6] (retina, bilateral topical instillation of 0.1% formulation QDX1, read-out: Concentration (nM) retina) it was 351 nM; in series [6] (sclera/choroid, bilateral topical instillation of 0.1% formulation QDX1, read-out: Concentration (nM) Sclera/choroid), 2970 nM. For the same molecule, the concentration at 2 h in series [1] (setting [8]) was 8840 nM; in series [1] (setting [9]), 495 nM; in series [1] (setting [10]), 6040 nM.

On to `COc1cc(Nc2nc(Nc3cccc(OCCN4CCCC4)c3)ncc2C#N)c(Cl)cc1Cl` [drawing 299, 4-(2,4-Dichloro-5-methoxy-phenylamino)-2-[3-(2-pyrrolidin-1-yl-ethoxy)-phenylamino]-pyrimidine-5-carbonitrile], for which the IC50 in series [7] was determined as 10500 nM.

`COc1cc(Nc2nc(Nc3cccc(OCCN4CCCC4)c3)ncc2C)c(Cl)cc1Cl` [drawing 300, N4-(2,4-Dichloro-5-methoxy-phenyl)-5-methyl-N2-[3-(2-pyrrolidin-1-yl-ethoxy)-phenyl]-pyrimidine-2,4-diamine]: the IC50 in series [7] worked out at 2040 nM.

For the molecule `COc1cccc(Nc2nc(Nc3ccc(OCCN4CCCC4)cc3)ncc2C)c1` [drawing 301, N2-(4-(2-(pyrrolidin-1-yl)ethoxy)phenyl)-N4-(3-methoxyphenyl)-5-methylpyrimidine-2,4-diamine Hydrochloride], the IC50 in series [7] amounted to 52.8 nM.

With `COc1cc(Nc2nc(Nc3ccc(OCCN4CCCC4)cc3)ncc2C)ccc1Cl` [drawing 311, N4-(4-Chloro-3-methoxy-phenyl)-5-methyl-N2-[4-(2-pyrrolidin-1-yl-ethoxy)-phenyl]-pyrimidine-2,4-diamine], the IC50 in series [7] stood at 7.96 nM.

Turning to `Cc1cnc(Nc2ccc(OCCN3CCCC3)cc2)nc1Nc1cccc2c1OCO2` [drawing 333, N4-Benzo[1,3]dioxol-4-yl-5-methyl-N2-[4-(2-pyrrolidin-1-ylethoxy)-phenyl]-pyrimidine-2,4-diamine], the IC50 in series [7] came out at 16.9 nM.

Consider `COc1cc(Nc2nc(Nc3ccc(N4CCNCC4)cc3)ncc2C)ccc1Cl` [drawing 348, N4-(4-Chloro-3-methoxy-phenyl)-5-methyl-N2-(4-piperazin-1-yl-phenyl)-pyrimidine-2,4-diamine], for which the IC50 in series [7] was 6.15 nM.

Consider `COc1cc(Nc2nc(Nc3ccc(OC4CCNCC4)cc3)ncc2C)ccc1Cl` [drawing 349, N4-(4-Chloro-3-methoxy-phenyl)-5-methyl-N2-[4-(piperidin-4-yloxy)-phenyl]-pyrimidine-2,4-diamine], for which the IC50 in series [7] was 4.14 nM.

Consider `Cc1cnc(Nc2ccc(N3CCN(C)CC3)cc2)nc1Nc1ccc(Cl)c2[nH]ccc12` [drawing 356, N4-(7-chloro-1H-indol-4-yl)-5-methyl-N2-(4-(4-methylpiperazin-1-yl)phenyl)pyrimidine-2,4-diamine], for which the IC50 in series [7] was 5.36 nM.

`Cc1cnc(Nc2ccc(N3CCN(C)CC3)cc2)nc1Nc1cc(C)c(Cl)c(C)c1` [drawing 361, N4-(4-chloro-3,5-dimethylphenyl)-5-methyl-N2-(4-(4-methylpiperazin-1-yl)phenyi)pyrimidine-2,4-diamine Hydrochloride]: in series [7], the IC50 amounted to 38 nM.

Consider `Cc1ccc(Nc2nc(Nc3ccc(N4CCN(C)CC4)cc3)ncc2C)cc1C` [drawing 459, 5-methyl-N4-(3,4-dimeihylphenyl)-N2-(4-(4-methylpiperazin-1-yl)phenyl)pyrimidine-2,4-diamine Hydrochloride], for which the IC50 in series [7] worked out at 16.6 nM.

Regarding `Cc1cn(-c2cc(NC(=O)c3ccc(C)c(Nc4nccc(-c5cccnc5)n4)c3)cc(C(F)(F)F)c2)cn1` [nilotinib], the “concentrations inhibiting growth of Ba/F3 cells harboring FIP1L1-PDFGRA-T674I” value in series [3] is given as “nanomolar concentrations”.

Values taken from patent publication US8604042B2, “Bi-aryl meta-pyrimidine inhibitors of kinases” (TargeGen, Inc., priority 2005, dated 2013).
